Experimental data: US6399625B1, “1-oxorapamycins” (Wyeth, priority 2000, dated 2002)
Values after ≈ are worked out from the molar mass of the structure shown. Where two headings read alike, the source gives them in different places.

How the values were obtained:
Type in all cases: cell-based
[1] = tested on: A. fumigatus GC 3092; assay: Antifungal activity, microtiter broth dilution MIC; conditions: for ANTIFUNGAL ACTIVITY (MIC): A. fumigatus GC 3092, RPMI 1640, 35° C., 24-48 hours
Method: (§1) The antifungal activity for the 1-oxorapamycins of this invention was confirmed in a standard pharmacological test procedure which measured the ability of the compound being evaluated to inhibit fungal growth. 1-Oxorapamycin (Compound I), 1-oxorapamycin 42-ester with 3-hydroxy-2-(hydroxymethyl)-2-methylpropionic acid (Compound II), and 42-O-(2-hydroxy)ethyl 1-oxorapamycin (Compound III) were evaluated as representative compounds of this invention. The procedure used and results obtained are briefly described below. A 96 U-bottom microtiter plate was filled (50 μl/well) with RPMI 1640. The compounds to be evaluated were placed in appropriate wells, and serial diluted in successive wells to provide 11 dilutions. The concentrations ranged from 64 through 0.06 μg/ml. An adjusted inoculum of fungi (50 μl) was added to each well and the plates were incubated at 35° C. for 24-48 hours. […] Nystatin and rapamycin were used for the purpose of comparison.

[2] = tested on: A. niger GC 3091; assay: Antifungal activity, microtiter broth dilution MIC; conditions: 24-48 hours; for ANTIFUNGAL ACTIVITY (MIC): RPMI 1640, 35° C.
Method: as §1

[3] = tested on: A. niger GC 6591; assay: Antifungal activity, microtiter broth dilution MIC; conditions: 24-48 hours; for ANTIFUNGAL ACTIVITY (MIC): RPMI 1640, 35° C.
Method: as §1

[4] = tested on: C. albicans GC 3064; assay: Antifungal activity, microtiter broth dilution MIC; conditions: 24-48 hours; for ANTIFUNGAL ACTIVITY (MIC): RPMI 1640, 35° C.
Method: as §1

[5] = tested on: C. albicans GC 3065; assay: Antifungal activity, microtiter broth dilution MIC; conditions: 24-48 hours; for ANTIFUNGAL ACTIVITY (MIC): RPMI 1640, 35° C.
Method: as §1

[6] = tested on: C. albicans GC 3066; assay: Antifungal activity, microtiter broth dilution MIC; conditions: 24-48 hours; for ANTIFUNGAL ACTIVITY (MIC): RPMI 1640, 35° C.
Method: as §1

[7] = tested on: C. krussii GC 3067; assay: Antifungal activity, microtiter broth dilution MIC; conditions: RPMI 1640, 35° C., 24-48 hours
Method: as §1

[8] = tested on: C. lusitaniae GC 3068; assay: Antifungal activity, microtiter broth dilution MIC; conditions: RPMI 1640, 35° C., 24-48 hours; for MIC: Clavispora lusitaniae
Method: as §1

[9] = tested on: C. parapsilosis GC 3074; assay: Antifungal activity, microtiter broth dilution MIC; conditions: 24-48 hours; for ANTIFUNGAL ACTIVITY (MIC): RPMI 1640, 35° C.
Method: as §1

[10] = tested on: C. parapsilosis GC 3075; assay: Antifungal activity, microtiter broth dilution MIC; conditions: 24-48 hours; for ANTIFUNGAL ACTIVITY (MIC): RPMI 1640, 35° C.
Method: as §1

[11] = tested on: C. parapsilosis GC 3076; assay: Antifungal activity, microtiter broth dilution MIC; conditions: 24-48 hours; for ANTIFUNGAL ACTIVITY (MIC): RPMI 1640, 35° C.
Method: as §1

[12] = tested on: C. pseudotropicalis 3070; assay: Antifungal activity, microtiter broth dilution MIC; conditions: RPMI 1640, 35° C., 24-48 hours
Method: as §1

[13] = tested on: C. tropicalis GC 3080; assay: Antifungal activity, microtiter broth dilution MIC; conditions: 24-48 hours; for ANTIFUNGAL ACTIVITY (MIC): RPMI 1640, 35° C.
Method: as §1

[14] = tested on: C. tropicalis GC 3081; assay: Antifungal activity, microtiter broth dilution MIC; conditions: 24-48 hours; for ANTIFUNGAL ACTIVITY (MIC): RPMI 1640, 35° C.
Method: as §1

[15] = tested on: 3T3 (ovarian) tumor cell line; assay: Antineoplastic activity, tumor cell growth inhibition (sulforhodamine B); conditions: 48 hours
Description: (§2) Antineoplastic activity for the compounds of this invention was confirmed by evaluating the antineoplastic activity of representative compounds of this invention (Compounds I-III) against six tumor cell lines in vitro. Briefly, tumor cells from six cell lines were placed in wells of a 96 well microtiter plate. The following tumor cell lines were used: 3T3 (ovarian), 3T3/H2N (ovarian—resistant to cis-platin), A431 (vulva epidermoid origin), SW620 (colon), SKBR3 (breast), and MDA-435 (breast). The tumors cells were grown in the presence of serial dilutions of the compound to be evaluated for 48 hours, and cell growth determined using a colorimetric procedure (sulforhrodamine B). The inhibition of growth was calculated compared to the number of cells at the time of test compound addition. Results are expressed as an IC50 (μg/ml); N/A indicates the compound was not evaluated against that cell line. The following IC50s was listed on Table 2.

[16] = tested on: 3T3/H2N (ovarian—resistant to cis-platin) tumor cell line; assay: as above; conditions: 3T3/H2N cells, 48 hours
Description: as §2

[17] = tested on: A431 (vulva epidermoid origin) tumor cell line; assay: as above; conditions: 48 hours
Description: as §2

[18] = tested on: MDA-435 (breast) tumor cell line; assay: as above; conditions: MDA435 cells, 48 hours
Description: as §2

[19] = tested on: SKBR3 (breast) tumor cell line; assay: as above; conditions: 48 hours
Description: as §2

[20] = tested on: SW620 (colon) tumor cell line; assay: as above; conditions: 48 hours
Description: as §2

[21] = tested on: SH-SY5Y cells; assay: Neuroregeneration activity, neurite outgrowth; conditions: aphidicolin pretreated, NGF plus test compound, mean ± SEM
Description: The neuroregeneration activity for the compounds of this invention was confirmed in a standard pharmacological test procedure by evaluating 1-oxo-rapamycin (Compound I) as representative compound of this invention, against SH-SY5Y cells in vitro [Gold et al., Exp Neurol 147: 269-278, 1997]. Briefly, SH-SY5Y cells were placed in 6-well plate treated with aphidicolin for 5 days followed by the test compounds using 6-well plates. For controls, wells were untreated, or treated with nerve growth factor (NGF) alone. Test wells were treated with NGF plus compound I or rapamycin. Cells were photographed at 168 hours. Analysis of neuritic lengths was performed on photographic prints using a Houston Instrument HI-PAD digitizing tablet connected to an IBM XT computer with appropriate software (Bioquant IV, R&M Biometrics, Nashville, Tenn.). Mean values for axonal areas were compared using by ANOVA (STATVIEW, Abacus Concepts, Inc., Berkeley, Calif. The following table summarizes the results that were obtained.

[22] = C. lusitaniae GC 3068, first listing (r26)
[23] = C. lusitaniae GC 3068, second listing (r28)

C[C@@H]1[C@H](O)[C@@H](C)/C=C/C=C/CC/C=C/C=C/C=C/C=C/C(O[C@H]2O[C@H](C)[C@@H](O)[C@H](N)[C@@H]2O)CC2O[C@](O)(CC(O)C(O)CCC(O)CC(O)CC(O)CC(=O)O[C@H]1C)CC(O)C2C(=O)O (stereo partly shown) [Nystatin, reference compound]
ANTIFUNGAL ACTIVITY (MIC) [1]: 1 µg/mL | ANTIFUNGAL ACTIVITY (MIC) [2]: 2 µg/mL | ANTIFUNGAL ACTIVITY (MIC) [3]: 2 µg/mL | ANTIFUNGAL ACTIVITY (MIC) [4]: 1 µg/mL | ANTIFUNGAL ACTIVITY (MIC) [5]: 1 µg/mL | ANTIFUNGAL ACTIVITY (MIC) [6]: 1 µg/mL | ANTIFUNGAL ACTIVITY (MIC) [7]: 1 µg/mL | ANTIFUNGAL ACTIVITY (MIC) [8, 22]: 0.50 µg/mL | ANTIFUNGAL ACTIVITY (MIC) [8, 23]: 1 µg/mL | ANTIFUNGAL ACTIVITY (MIC) [9]: 1 µg/mL | ANTIFUNGAL ACTIVITY (MIC) [10]: 0.50 µg/mL | ANTIFUNGAL ACTIVITY (MIC) [11]: 0.50 µg/mL | ANTIFUNGAL ACTIVITY (MIC) [12]: 0.50 µg/mL | ANTIFUNGAL ACTIVITY (MIC) [13]: 0.25 µg/mL | ANTIFUNGAL ACTIVITY (MIC) [14]: 1 µg/mL

CO[C@H]1CC2CC[C@@H](C)[C@@](O)(O2)C(=O)C(=O)N2CCCC[C@H]2C(=O)O[C@H]([C@H](C)CC2CC[C@@H](OC(=O)C(C)(CO)CO)[C@H](OC)C2)CC(=O)[C@H](C)/C=C(\C)[C@@H](O)[C@@H](OC)C(=O)[C@H](C)C[C@H](C)C(=O)C/C=C/C=C/1C (stereo partly shown) [Compound II, 1-Oxorapamycin 42-ester with 3-Hydroxy-2-(hydroxymethyl)-2-methylpropionic acid]
ANTIFUNGAL ACTIVITY (MIC) [1]: 64 µg/mL | ANTIFUNGAL ACTIVITY (MIC) [2]: 32 µg/mL | ANTIFUNGAL ACTIVITY (MIC) [3]: 64 µg/mL | ANTIFUNGAL ACTIVITY (MIC) [4]: 8 µg/mL | ANTIFUNGAL ACTIVITY (MIC) [5]: 2 µg/mL | ANTIFUNGAL ACTIVITY (MIC) [6]: 2 µg/mL | ANTIFUNGAL ACTIVITY (MIC) [7]: 16 µg/mL | ANTIFUNGAL ACTIVITY (MIC) [8, 22]: 1 µg/mL | ANTIFUNGAL ACTIVITY (MIC) [8, 23]: 1 µg/mL | ANTIFUNGAL ACTIVITY (MIC) [9]: 2 µg/mL | ANTIFUNGAL ACTIVITY (MIC) [10]: 2 µg/mL | ANTIFUNGAL ACTIVITY (MIC) [11]: 1 µg/mL | ANTIFUNGAL ACTIVITY (MIC) [12]: 0.50 µg/mL | ANTIFUNGAL ACTIVITY (MIC) [13]: 1 µg/mL | ANTIFUNGAL ACTIVITY (MIC) [14]: 0.50 µg/mL | Antineoplastic Activity (IC50) ([15]; 3T3 cells): 0.84 µg/mL | Antineoplastic Activity (IC50) [16]: 3.0 µg/mL | Antineoplastic Activity (IC50) ([17]; A431 cells): 5.5 µg/mL | Antineoplastic Activity (IC50) [18]: 2.8 µg/mL | Antineoplastic Activity (IC50) ([19]; SKBR3 cells): 1.7 µg/mL | Antineoplastic Activity (IC50) ([20]; SW620 cells): 8.7 µg/mL

CO[C@H]1C[C@@H]2CC[C@@H](C)[C@@](O)(O2)C(=O)C(=O)N2CCCC[C@H]2C(=O)O[C@H]([C@H](C)C[C@@H]2CC[C@@H](O)[C@H](OC)C2)CC(=O)[C@H](C)/C=C(\C)[C@@H](O)[C@@H](OC)C(=O)[C@H](C)C[C@H](C)/C=C/C=C/C=C/1C [Rapamycin]
MIC ([1]; Aspergillus fumigatus, GC3092, read-out: ANTIFUNGAL ACTIVITY (MIC)): > 128 µg/mL | MIC ([2]; Aspergillus niger, GC3091, RPMI 1640, 35° C.): > 128 µg/mL | MIC ([3]; Aspergillus niger, GC6591, RPMI 1640, 35° C.): > 128 µg/mL | MIC ([4]; Candida albicans, GC3064, RPMI 1640, 35° C.): < 0.12 µg/mL | MIC ([5]; Candida albicans, GC3065, RPMI 1640, 35° C.): 0.5 µg/mL (≈ 0.547 µM) | MIC ([6]; Candida albicans, GC3066, RPMI 1640, 35° C.): < 0.12 µg/mL | MIC [7]: 4 µg/mL (≈ 4.38 µM) | MIC ([8]; GC3068, C. lusitaniae GC 3068, first listing (r26), read-out: ANTIFUNGAL ACTIVITY (MIC)): < 0.12 µg/mL | MIC ([8]; GC3068, read-out: ANTIFUNGAL ACTIVITY (MIC), C. lusitaniae GC 3068, second listing (r28)): 0.5 µg/mL (≈ 0.547 µM) | MIC ([9]; Lodderomyces parapsilosis, GC3074, RPMI 1640, 35° C.): 0.25 µg/mL (≈ 0.273 µM) | MIC ([10]; Lodderomyces parapsilosis, GC3075, RPMI 1640, 35° C.): < 0.12 µg/mL | MIC ([11]; Lodderomyces parapsilosis, GC3076, RPMI 1640, 35° C.): < 0.12 µg/mL | MIC ([12]; Kluyveromyces marxianus): < 0.12 µg/mL | MIC ([13]; Candida tropicalis, GC3080, RPMI 1640, 35° C.): 0.25 µg/mL (≈ 0.273 µM) | MIC ([14]; Candida tropicalis, GC3081, RPMI 1640, 35° C.): 0.25 µg/mL (≈ 0.273 µM) | IC50 ([15]; Mus musculus, NIH3T3, 3T3 cells): 0.48 µg/mL (≈ 0.525 µM) | IC50 [16]: 1.7 µg/mL (≈ 1.86 µM) | IC50 ([17]; Homo sapiens, A-431, A431 cells): 1.9 µg/mL (≈ 2.08 µM) | IC50 [18]: 1.3 µg/mL (≈ 1.42 µM) | IC50 ([19]; Homo sapiens, SK-BR-3, SKBR3 cells): 0.87 µg/mL (≈ 0.952 µM) | IC50 ([20]; Homo sapiens, SW-620, SW620 cells): 2.3 µg/mL (≈ 2.52 µM) | Mean Neurite Lengths after 168 h, Neurite Length [21]: 261.4 ± 13.1 μm
